Data: ChEMBL document CHEMBL4184209, “Identification and initial optimization of inhibitors of Clostridium difficile (C. difficile) toxin B (TcdB)” (Bioorg Med Chem Lett, 2018)
Active and inactive are the calls of the source.

Columns and labels:
Toxin B [1] = biological target: T1, Toxin B (Clostridioides difficile, UniProt P18177); experiment: Inhibition of C-terminal 6-His tagged recombinant Clostridium difficile toxin B catalytic fragment (Met1 to Leu543 residues) assessed as reduction in glucosyltransferase domain UDP-glucose hydrolysis activity using UDP-glucose and ADP Alexa633 tracer incubated fore 3 hrs by fluorescence polarization assay
[2] = tested on: Limosilactobacillus reuteri; experiment: Effect on growth of Lactobacillus reuteri at 0.5 to 100 uM incubated for 24 hrs under anaerobic conditions by spectrophotometry; type: organism-based
[3] = Stability in human liver microsomes assessed as parent compound remaining level incubated for 15 mins; type: ADME, microsome; conditions: read-out: Stability
Toxin B [4] = biological target: T1, Toxin B; experiment: Inhibition of Clostridium difficile toxin B […] assessed as reduction in caspase 3/7 activation pre-incubated for 1 hr before TcdB addition by luminescence based assay1; type: cell-based
Bacteroides fragilis = experiment: Effect on growth of Bacteroides fragilis at 0.5 to 100 uM incubated for 48 hrs under anaerobic conditions by spectrophotometry; type: organism-based
Bifidobacterium longum = experiment: Effect on growth of Bifidobacterium longum at 0.5 to 100 uM incubated for 24 hrs under anaerobic conditions by spectrophotometry; type: organism-based
Clostridioides difficile = experiment: Effect on growth of Clostridium difficile at 0.5 to 100 uM incubated for 24 hrs under anaerobic conditions by spectrophotometry; type: functional, organism-based
[5] = Stability in mouse liver microsomes assessed as parent compound remaining level incubated for 15 mins; type: ADME, microsome; conditions: read-out: Stability

T1 sequence (P18177 whole entry, the tested form may be a part): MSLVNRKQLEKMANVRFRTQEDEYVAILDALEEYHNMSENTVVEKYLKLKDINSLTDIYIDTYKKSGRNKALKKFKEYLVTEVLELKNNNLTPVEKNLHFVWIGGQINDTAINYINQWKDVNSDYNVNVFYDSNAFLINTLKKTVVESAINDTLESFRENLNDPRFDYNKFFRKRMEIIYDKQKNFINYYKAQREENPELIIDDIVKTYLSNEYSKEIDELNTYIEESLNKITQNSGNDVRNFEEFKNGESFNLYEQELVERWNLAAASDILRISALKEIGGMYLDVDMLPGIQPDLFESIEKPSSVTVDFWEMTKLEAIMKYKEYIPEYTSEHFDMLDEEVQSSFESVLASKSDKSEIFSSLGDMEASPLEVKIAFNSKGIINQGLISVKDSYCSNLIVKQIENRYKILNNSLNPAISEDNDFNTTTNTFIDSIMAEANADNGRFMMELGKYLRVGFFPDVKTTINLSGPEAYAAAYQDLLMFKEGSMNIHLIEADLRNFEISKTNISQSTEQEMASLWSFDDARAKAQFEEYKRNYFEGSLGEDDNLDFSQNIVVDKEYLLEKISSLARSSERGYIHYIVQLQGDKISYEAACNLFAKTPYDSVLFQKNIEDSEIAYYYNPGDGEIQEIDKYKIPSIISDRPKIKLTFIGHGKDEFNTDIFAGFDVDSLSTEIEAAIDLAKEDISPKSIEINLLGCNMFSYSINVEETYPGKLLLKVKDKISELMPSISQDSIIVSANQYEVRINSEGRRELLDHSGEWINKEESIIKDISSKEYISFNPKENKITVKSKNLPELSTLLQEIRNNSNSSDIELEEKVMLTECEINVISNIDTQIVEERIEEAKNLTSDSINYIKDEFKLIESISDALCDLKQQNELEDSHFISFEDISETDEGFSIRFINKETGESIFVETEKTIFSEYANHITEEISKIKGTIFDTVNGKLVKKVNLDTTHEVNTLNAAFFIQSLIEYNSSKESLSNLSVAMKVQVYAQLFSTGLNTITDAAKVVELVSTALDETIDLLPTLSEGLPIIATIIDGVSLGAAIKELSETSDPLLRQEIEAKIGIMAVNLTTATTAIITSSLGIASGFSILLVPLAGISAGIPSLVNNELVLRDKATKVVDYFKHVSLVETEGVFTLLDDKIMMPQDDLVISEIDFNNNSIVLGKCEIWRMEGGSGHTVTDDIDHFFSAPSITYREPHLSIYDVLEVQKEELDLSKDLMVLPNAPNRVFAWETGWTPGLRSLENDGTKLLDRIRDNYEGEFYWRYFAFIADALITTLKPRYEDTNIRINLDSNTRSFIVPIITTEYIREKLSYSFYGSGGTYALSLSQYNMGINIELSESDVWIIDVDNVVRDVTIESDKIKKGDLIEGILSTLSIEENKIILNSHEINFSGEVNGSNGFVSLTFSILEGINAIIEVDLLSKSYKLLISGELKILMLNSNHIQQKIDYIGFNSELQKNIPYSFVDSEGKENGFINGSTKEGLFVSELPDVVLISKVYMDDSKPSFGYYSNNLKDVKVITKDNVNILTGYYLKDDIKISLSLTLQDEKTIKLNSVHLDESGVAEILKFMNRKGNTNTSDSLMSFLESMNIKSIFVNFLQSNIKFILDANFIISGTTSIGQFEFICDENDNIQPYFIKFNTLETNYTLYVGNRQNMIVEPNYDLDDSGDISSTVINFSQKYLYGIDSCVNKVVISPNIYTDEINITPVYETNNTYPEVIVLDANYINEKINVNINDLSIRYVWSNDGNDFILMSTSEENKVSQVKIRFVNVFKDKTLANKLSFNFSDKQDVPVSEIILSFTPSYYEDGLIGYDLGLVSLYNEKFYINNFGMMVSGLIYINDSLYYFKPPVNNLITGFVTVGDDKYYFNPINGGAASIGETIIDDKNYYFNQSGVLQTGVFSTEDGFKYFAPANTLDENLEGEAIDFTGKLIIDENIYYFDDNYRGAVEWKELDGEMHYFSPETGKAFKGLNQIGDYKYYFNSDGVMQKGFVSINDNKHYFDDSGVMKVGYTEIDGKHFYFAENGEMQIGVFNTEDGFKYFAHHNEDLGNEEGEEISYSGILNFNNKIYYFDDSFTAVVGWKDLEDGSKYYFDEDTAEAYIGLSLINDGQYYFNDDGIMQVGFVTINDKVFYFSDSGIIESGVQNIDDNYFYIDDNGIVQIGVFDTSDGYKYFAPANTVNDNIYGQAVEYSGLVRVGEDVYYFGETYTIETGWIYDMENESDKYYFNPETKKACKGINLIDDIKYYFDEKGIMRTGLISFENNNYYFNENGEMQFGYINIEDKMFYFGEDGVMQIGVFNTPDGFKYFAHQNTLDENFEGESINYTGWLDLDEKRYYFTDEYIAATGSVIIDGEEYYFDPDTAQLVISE

SMILES	IC50 (Toxin B [1])	Activity [2]	remaining at 0.25 h [3]	IC50 (Toxin B [4])	Activity (Bacteroides fragilis)	Activity (Bifidobacterium longum)	Activity (Clostridioides difficile)	remaining at 0.25 h [5]
O=C(Nc1ccccn1)c1ccc(CN2C(=O)c3ccc(Cl)cc3NC(=O)[C@H]2Cc2ccccn2)cc1	0.003 µM	Non-Toxic	99%	230 nM	Non-Toxic	Non-Toxic	inactive	53%
O=C(O)c1ccc(CN2C(=O)c3cc(Cl)ccc3NC(=O)[C@H]2Cc2cccnc2)cc1	> 80 µM	Non-Toxic	–	–	Non-Toxic	Non-Toxic	inactive	–
CC(C)C[C@@H]1C(=O)Nc2cc(Cl)ccc2C(=O)N1Cc1ccc(C(=O)O)cc1	> 80 µM	Non-Toxic	–	–	Non-Toxic	Non-Toxic	inactive	–
O=C(Nc1cccnc1)c1ccc(CN2C(=O)c3ccc(Cl)cc3NC(=O)[C@H]2Cc2cccnc2)cc1	> 80 µM	Non-Toxic	–	–	Non-Toxic	Non-Toxic	inactive	–
O=C(O)c1ccc(CN2C(=O)c3ccc(F)cc3NC(=O)[C@H]2Cc2cccnc2)cc1	8.6 µM	Non-Toxic	–	–	Non-Toxic	Non-Toxic	inactive	–
O=C(O)c1ccc(CN2C(=O)c3ccc(Cl)cc3NC(=O)[C@H]2c2ccccc2)cc1	> 80 µM	Non-Toxic	–	–	Non-Toxic	Non-Toxic	inactive	–
O=C(Nc1ccccc1)c1ccc(CN2C(=O)c3ccc(Cl)cc3NC(=O)[C@H]2Cc2cccnc2)cc1	22 µM	Non-Toxic	–	–	Non-Toxic	Non-Toxic	inactive	–
COC(=O)c1ccc(CN2C(=O)c3ccc(Cl)cc3NC(=O)[C@H]2Cc2cccnc2)cc1	> 80 µM	Non-Toxic	–	–	Non-Toxic	Non-Toxic	inactive	–
O=C(O)c1ccc(CN2C(=O)c3cccc(Cl)c3NC(=O)[C@H]2Cc2cccnc2)cc1	69 µM	Non-Toxic	–	–	Non-Toxic	Non-Toxic	inactive	–
Cc1ccccc1C[C@@H]1C(=O)Nc2cc(Cl)ccc2C(=O)N1Cc1ccc(C(=O)O)cc1	3.9 µM	Non-Toxic	–	–	Non-Toxic	Non-Toxic	inactive	–
O=C(O)c1ccc(CN2C(=O)c3ccc(Cl)cc3NC(=O)[C@@H]2Cc2ccc(Cl)c(Cl)c2)cc1	2.1 µM	Non-Toxic	–	–	Non-Toxic	Non-Toxic	inactive	–
O=C(O)c1ccc(CN2C(=O)c3ccc(Cl)cc3NC(=O)[C@H]2Cc2nccs2)cc1	2.3 µM	Non-Toxic	–	–	Non-Toxic	Non-Toxic	inactive	–
O=C(O)c1ccc(CN2C(=O)c3ccc(Cl)cc3NC(=O)[C@@H]2Cc2ccc(O)cc2)cc1	16 µM	Non-Toxic	–	–	Non-Toxic	Non-Toxic	inactive	–
O=C(O)c1ccc(CN2C(=O)c3ccc(Cl)cc3NC(=O)[C@H]2Cc2ccccc2F)cc1	30 µM	Non-Toxic	–	–	Non-Toxic	Non-Toxic	inactive	–
O=C(O)c1ccc(CN2C(=O)c3ccc(Cl)cc3NC(=O)[C@H]2CC2CCCCC2)cc1	84 µM	Non-Toxic	–	–	Non-Toxic	Non-Toxic	inactive	–
O=C(O)c1ccc(CN2C(=O)c3ccc(Cl)cc3NC(=O)[C@H]2Cc2cccc(Cl)c2)cc1	1.6 µM	Non-Toxic	–	–	Non-Toxic	Non-Toxic	inactive	–
N#Cc1cccc(C[C@@H]2C(=O)Nc3cc(Cl)ccc3C(=O)N2Cc2ccc(C(=O)O)cc2)c1	6.2 µM	Non-Toxic	–	–	Non-Toxic	Non-Toxic	inactive	–
O=C(O)c1ccc(CN2C(=O)c3ccc(Cl)cc3NC(=O)[C@H]2Cc2ccncc2)cc1	18 µM	Non-Toxic	–	–	Non-Toxic	Non-Toxic	inactive	–
C[C@@H]1C(=O)Nc2cc(Cl)ccc2C(=O)N1Cc1ccc(C(=O)O)cc1	21 µM	Non-Toxic	–	–	Non-Toxic	Non-Toxic	inactive	–

SMILES	IC50 (Toxin B [1])	Activity [2]	remaining at 0.25 h [3]	IC50 (Toxin B [4])	Activity (Bacteroides fragilis)	Activity (Bifidobacterium longum)	Activity (Clostridioides difficile)	remaining at 0.25 h [5]
O=C(O)c1ccc(CN2C(=O)c3ccc(Cl)cc3NC(=O)[C@H]2Cc2ccccc2Cl)cc1	2.3 µM	Non-Toxic	–	–	Non-Toxic	Non-Toxic	inactive	–
O=C(O)c1ccc(CN2C(=O)c3ccc(Cl)cc3NC(=O)[C@H]2Cc2ccccn2)cc1	0.24 µM	Non-Toxic	–	–	Non-Toxic	Non-Toxic	inactive	–
Cc1cccc(C[C@@H]2C(=O)Nc3cc(Cl)ccc3C(=O)N2Cc2ccc(C(=O)O)cc2)c1	4.4 µM	Non-Toxic	–	–	Non-Toxic	Non-Toxic	inactive	–
O=C(O)c1ccc(CN2C(=O)c3ccc(Cl)cc3NC(=O)[C@H]2Cc2ccc(Cl)cc2)cc1	17 µM	Non-Toxic	–	–	Non-Toxic	Non-Toxic	inactive	–
O=C(O)c1ccc(CN2C(=O)c3ccc(Cl)cc3NC(=O)[C@H]2Cc2ccc(O)cc2)cc1	2 µM	Non-Toxic	–	–	Non-Toxic	Non-Toxic	inactive	–
Cc1ccc(C[C@@H]2C(=O)Nc3cc(Cl)ccc3C(=O)N2Cc2ccc(C(=O)O)cc2)cc1	32 µM	Non-Toxic	–	–	Non-Toxic	Non-Toxic	inactive	–
O=C(Nc1ccncc1)c1ccc(CN2C(=O)c3ccc(Cl)cc3NC(=O)[C@H]2Cc2cccnc2)cc1	> 80 µM	Non-Toxic	–	–	Non-Toxic	Non-Toxic	inactive	–
O=C(O)c1ccc(CN2C(=O)c3ccc(Cl)cc3NC(=O)[C@@H]2Cc2ccccn2)cc1	0.5 µM	Non-Toxic	–	–	Non-Toxic	Non-Toxic	inactive	–
CN1C(=O)[C@@H](Cc2cccnc2)N(Cc2ccc(C(=O)O)cc2)C(=O)c2ccc(Cl)cc21	> 80 µM	Non-Toxic	–	–	Non-Toxic	Non-Toxic	inactive	–
O=C(O)c1ccc(CN2C(=O)c3ccc(Cl)cc3NC(=O)[C@H]2Cc2ccccc2)cc1	6.3 µM	Non-Toxic	–	–	Non-Toxic	Non-Toxic	inactive	–
O=C(O)c1ccc(CN2C(=O)c3ccccc3NC(=O)[C@H]2Cc2ccc(Cl)c(Cl)c2)cc1	2.1 µM	Non-Toxic	–	–	Non-Toxic	Non-Toxic	inactive	–
O=C(O)c1ccc(CN2C(=O)c3ccc(Cl)cc3NC(=O)[C@H]2Cc2cccnc2)cc1	0.77 µM	Non-Toxic	–	–	Non-Toxic	Non-Toxic	inactive	–
Cc1ccc2c(c1)NC(=O)[C@@H](Cc1ccc(Cl)c(Cl)c1)N(Cc1ccc(C(=O)O)cc1)C2=O	12 µM	Non-Toxic	–	–	Non-Toxic	Non-Toxic	inactive	–
COc1ccc2c(c1)NC(=O)[C@@H](Cc1cccnc1)N(Cc1ccc(C(=O)O)cc1)C2=O	2.5 µM	Non-Toxic	–	–	Non-Toxic	Non-Toxic	inactive	–
O=C(O)c1ccc(CN2C(=O)c3ccc(Cl)cc3NC(=O)[C@H]2CCc2ccccc2)cc1	23 µM	Non-Toxic	–	–	Non-Toxic	Non-Toxic	inactive	–
NC(=O)c1ccc(CN2C(=O)c3ccc(Cl)cc3NC(=O)[C@@H]2Cc2ccc(Cl)c(Cl)c2)cc1	16 µM	Non-Toxic	–	–	Non-Toxic	Non-Toxic	inactive	–
O=C(O)c1ccc(CN2C(=O)c3ccccc3NC(=O)[C@H]2Cc2cccnc2)cc1	46 µM	Non-Toxic	–	–	Non-Toxic	Non-Toxic	inactive	–
O=C(Nc1ncccn1)c1ccc(CN2C(=O)c3ccc(Cl)cc3NC(=O)[C@H]2Cc2cccnc2)cc1	0.018 µM	Non-Toxic	100%	–	Non-Toxic	Non-Toxic	inactive	88%
O=C(O)c1ccc(CN2C(=O)c3ccc(Cl)cc3NC(=O)C2Cc2cnccn2)cc1 (racemic)	3.1 µM	Non-Toxic	–	–	Non-Toxic	Non-Toxic	inactive	–
